{
  "source": "patent US9914737B2",
  "about": "“Triazolopyrimidinone or triazolopyridinone derivatives, and use thereof” (ST PHARM CO., LTD., priority 2014, dated 2018)",
  "note": "Counter-ions that a name gives are not always drawn.",
  "data": [
    {"molecular_target": "T1, tankyrase 1 (Homo sapiens, UniProt O95271)", "T1 construct": "purchased Trevigen 4700-096-K", "T1 sequence (O95271 1-1327)": "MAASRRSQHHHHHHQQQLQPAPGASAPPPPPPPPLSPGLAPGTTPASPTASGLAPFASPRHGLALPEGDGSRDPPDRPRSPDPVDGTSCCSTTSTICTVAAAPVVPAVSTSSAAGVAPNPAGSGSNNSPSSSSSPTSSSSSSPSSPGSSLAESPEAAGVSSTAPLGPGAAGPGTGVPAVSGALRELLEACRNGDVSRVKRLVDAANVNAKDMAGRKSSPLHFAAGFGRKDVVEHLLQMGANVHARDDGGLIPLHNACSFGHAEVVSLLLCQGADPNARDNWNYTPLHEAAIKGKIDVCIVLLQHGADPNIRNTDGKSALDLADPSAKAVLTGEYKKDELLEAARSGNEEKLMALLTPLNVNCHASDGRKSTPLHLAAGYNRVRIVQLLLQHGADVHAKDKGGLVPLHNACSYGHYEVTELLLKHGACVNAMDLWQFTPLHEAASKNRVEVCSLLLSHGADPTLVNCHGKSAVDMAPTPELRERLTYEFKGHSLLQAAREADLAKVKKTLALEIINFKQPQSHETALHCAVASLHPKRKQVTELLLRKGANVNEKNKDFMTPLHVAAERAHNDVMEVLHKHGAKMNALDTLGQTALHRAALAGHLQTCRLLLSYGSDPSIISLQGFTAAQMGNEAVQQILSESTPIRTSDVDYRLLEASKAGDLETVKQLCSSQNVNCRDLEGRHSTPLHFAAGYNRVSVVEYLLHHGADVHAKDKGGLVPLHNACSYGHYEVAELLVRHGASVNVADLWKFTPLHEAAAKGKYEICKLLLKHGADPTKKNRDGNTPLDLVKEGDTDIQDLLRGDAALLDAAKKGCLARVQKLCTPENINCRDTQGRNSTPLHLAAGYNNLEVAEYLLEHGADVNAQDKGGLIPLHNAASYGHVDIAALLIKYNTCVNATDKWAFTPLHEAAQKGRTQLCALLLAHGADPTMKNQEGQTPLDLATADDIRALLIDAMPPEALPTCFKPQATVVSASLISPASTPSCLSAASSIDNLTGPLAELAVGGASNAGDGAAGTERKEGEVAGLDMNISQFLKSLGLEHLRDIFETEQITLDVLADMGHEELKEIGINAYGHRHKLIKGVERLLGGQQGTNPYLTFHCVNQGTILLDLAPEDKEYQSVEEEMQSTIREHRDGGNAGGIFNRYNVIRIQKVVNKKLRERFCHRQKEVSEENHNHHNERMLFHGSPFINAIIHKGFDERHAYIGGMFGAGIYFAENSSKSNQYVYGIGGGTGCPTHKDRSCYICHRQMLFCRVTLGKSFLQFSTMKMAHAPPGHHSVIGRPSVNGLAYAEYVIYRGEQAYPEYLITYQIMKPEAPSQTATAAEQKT", "assay": "Analysis of activity of tankyrase 1 (Trevigen kit, ELISA absorbance at 450 nm)", "type": "biochemical", "settings": "not given", "description": "(§1) Activities of novel compounds synthesized according to Examples 1 to 72 against tankyrase 1 were analyzed using a Trevigen kit (Cat. No. 4700-096-K). Poly PAR histone protein-coated 96-well plate, anti-PAR monoclonal antibody and goat anti-mouse IgG-HRP were used for measurement of absorbance by ELISA method. Specifically, 20× I-PAR assay buffer was diluted to 1× by adding water, and 50 μL of the diluted buffer was added to each well of the 96-well plate followed by reacting at rt for 30 min. Then, the supernatant was completely removed from each well and 10 μL of 1× I-PAR assay buffer and 15 μL of assay substrate were added to each well along with 1 μL of a 50× solution of inhibitors to be tested, which were the compounds obtained in the Examples 1 to 72. 10 mUnits/μL of tankyrase 1 enzyme was diluted 50-fold with 1× I-PAR assay buffer and 25 μL of the diluted enzyme was added to each well and reacted while stirring at rt for 30 min. One without any compound of the present invention was used as a positive control and another containing 1× I-PAR assay buffer with the same volume instead of tankyrase 1 enzyme was used as a negative control. Upon completion of the reaction, 200 μL of PBSX, which was prepared by adding 0.1% triton X-100 to PBS, was added and removed and this washing process was repeated twice. Washing was repeated twice more using PBS in the same manner. 5× antibody diluent was diluted with distilled water to 1× concentration, 50 μL of the diluted goat anti-mouse IgG-HRP to 1/2000 was added to each well and reacted while stirring at rt for 30 min. Washes were carried out twice using PBSX and PBS, respectively. After adding 50 μL of TACS-sapphire to each well of the plate, the plate was blocked from light to react for 10 min to 15 min and the color of the reaction solution turned blue. To stop the reaction, 50 μL of 0.2N HCl was added to turn the solution yellow. Finally, the absorbance of the resulting solution was measured at 450 nm.", "units": {"IC50": "nM"}, "values": [
      {"smiles": "Cn1nnc2c(=O)[nH]c(N3CCN(c4c(F)cc(F)cc4F)CC3)nc21", "note": "[compound 22, 3-Methyl-5-(4-(2,4,6-trifluorophenyl)piperazin-1-yl)-3H-[1,2,3]triazolo[4,5-d]pyrimidin-7(6H)-one]", "IC50": 49.7},
      {"smiles": "CC(C)Oc1cc(F)c(N2CCN(c3nc4c(nnn4C)c(=O)[nH]3)CC2)c(F)c1", "note": "[compound 9, 5-(4-(2,6-Difluoro-4-isopropoxyphenyl)piperazin-1-yl)-3-methyl-3H-[1,2,3]triazolo[4,5-d]pyrimidin-7(6H)-one]", "IC50": 60.9},
      {"smiles": "Cn1nnc2c(=O)[nH]c(N3CCN(c4c(F)cc(OC5COC5)cc4F)CC3)nc21", "note": "[compound 15, 5-(4-(2,6-Difluoro-4-(oxetan-3-yloxy)phenyl)piperazin-1-yl)-3-methyl-3H-[1,2,3]triazolo[4,5-d]pyrimidin-7(6H)-one]", "IC50": 24.7}
    ]},
    {"molecular_target": "T1, tankyrase 1", "assay": "Analysis of activity of tankyrase 1 (Trevigen kit, ELISA absorbance at 450 nm)", "type": "biochemical", "settings": "tankyrase 1 enzyme, Trevigen kit Cat. No. 4700-096-K, 30 min at rt; read-out: TNKS1 (IC50)", "description": "as §1", "units": {"IC50": "nM"}, "values": [
      {"smiles": "Cn1nnc2c(=O)[nH]c(N3CCN(c4c(F)cc(OCCCN5CCCCC5)cc4F)CC3)nc21", "note": "[compound 33, 5-(4-(2,6-Difluoro-4-(3-(piperidin-1-yl)propoxy)phenyl)piperazin-1-yl)-3-methyl-3H-[1,2,3]triazolo[4,5-d]pyrimidin-7(6H)-one]", "IC50": 51.3},
      {"smiles": "CC(=O)OCCOc1cc(F)c(N2CCN(c3nc4c(nnn4C)c(=O)[nH]3)CC2)c(F)c1", "note": "[compound 8, 2-(3,5-Difluoro-4-(4-(3-methyl-7-oxo-6,7-dihydro-3H-[1,2,3]triazolo[4,5-d]pyrimidin-5-yl)piperazin-1-yl)phenoxy)ethyl acetate]", "IC50": 46.9},
      {"smiles": "COCCOc1cc(F)c(C2(O)CCN(c3nc4c(nnn4C)c(=O)[nH]3)CC2)c(F)c1", "note": "[compound 25, 5-(4-(2,6-Difluoro-4-(2-methoxyethoxy)phenyl)-4-hydroxypiperidin-1-yl)-3-methyl-3H-[1,2,3]triazolo[4,5-d]pyrimidin-7(6H)-one]", "IC50": 33.1},
      {"smiles": "Cn1nnc2c(=O)[nH]c(N3CCN(c4c(F)cc(OCCCCCC(=O)O)cc4F)CC3)nc21", "note": "[compound 19, 6-(3,5-Difluoro-4-(4-(3-methyl-7-oxo-6,7-dihydro-3H-[1,2,3]triazolo[4,5-d]pyrimidin-5-yl)piperazin-1-yl)phenoxy)hexanoic acid]", "IC50": 80},
      {"smiles": "C[C@H](N)C(=O)OCCOc1cc(F)c(N2CCN(c3nc4c(nnn4C)c(=O)[nH]3)CC2)c(F)c1", "note": "[compound 11, (S)-2-(3,5-difluoro-4-(4-(3-methyl-7-oxo-6,7-dihydro-3H-[1,2,3]triazolo[4,5-d]pyrimidin-5-yl)piperazin-1-yl)phenoxy)ethyl2-aminopropanoate hydrochloride]", "IC50": 14.5},
      {"smiles": "Cn1nnc2c(=O)[nH]c(N3CCN(c4c(F)cc(OCCN5CCC(O)C5)cc4F)CC3)nc21", "note": "(stereo not shown) [compound 41, 5-(4-(2,6-Difluoro-4-(2-(3-hydroxypyrrolidin-1-yl)ethoxy)phenyl)piperazin-1-yl)-3-methyl-3H-[1,2,3]triazolo[4,5-d]pyrimidin-7(6H)-one]", "IC50": 71.3},
      {"smiles": "Cn1nnc2c(=O)[nH]c(N3CCN(c4c(F)cc(OC(CO)CCl)cc4F)CC3)nc21", "note": "(stereo not shown) [compound 16, 5-(4-(4-(1-Chloro-3-hydroxypropan-2-yloxy)-2,6-difluorophenyl)piperazin-1-yl)-3-methyl-3H-[1,2,3]triazolo[4,5-d]pyrimidin-7(6H)-one]", "IC50": 28.6},
      {"smiles": "Cn1nnc2c(=O)[nH]c(N3CCN(c4c(F)cc(CN5CCOCC5)cc4F)CC3)cc21", "note": "[compound 60, 6-(4-(2,6-Difluoro-4-(morpholinomethyl)phenyl)piperazin-1-yl)-1-methyl-1H-[1,2,3]triazolo[4,5-c]pyridin-4(5H)-one]", "IC50": 25.8},
      {"smiles": "COCCCc1cc(F)c(N2CCN(c3nc4c(nnn4C)c(=O)[nH]3)CC2)c(F)c1", "note": "[compound 40, 5-(4-(2,6-Difluoro-4-(3-methoxypropyl)phenyl)piperazin-1-yl)-3-methyl-3H-[1,2,3]triazolo[4,5-d]pyrimidin-7(6H)-one]", "IC50": 93.1},
      {"smiles": "Cn1nnc2c(=O)[nH]c(N3CCN(c4c(F)cc(OCCN5CCC(O)CC5)cc4F)CC3)nc21", "note": "[compound 42, 5-(4-(2,6-Difluoro-4-(2-(4-hydroxypiperidin-1-yl)ethoxy)phenyl)piperazin-1-yl)-3-methyl-3H-[1,2,3]triazolo[4,5-d]pyrimidin-7(6H)-one]", "IC50": 51.4},
      {"smiles": "Cn1nnc2c(=O)[nH]c(N3CCN(c4c(F)cc(OCCN5CCC(N)CC5)cc4F)CC3)cc21", "note": "[compound 72, 6-(4-(4-(2-(4-Aminopiperidin-1-yl)ethoxy)-2,6-difluorophenyl)piperazin-1-yl)-1-methyl-1H-[1,2,3]triazolo[4,5-c]pyridin-4(5H)-one]", "IC50": 7.31},
      {"smiles": "COC(C)c1cc(F)c(N2CCN(c3nc4c(nnn4C)c(=O)[nH]3)CC2)c(F)c1", "note": "(stereo not shown) [compound 18, 5-(4-(2,6-Difluoro-4-(1-methoxyethyl)phenyl)piperazin-1-yl)-3-methyl-3H-[1,2,3]triazolo[4,5-d]pyrimidin-7(6H)-one]", "IC50": 30},
      {"smiles": "COCCOc1cc(F)c(C2CCN(c3nc4c(nnn4C)c(=O)[nH]3)CC2)c(F)c1", "note": "[compound 45, 5-(4-(2,6-Difluoro-4-(2-methoxyethoxy)phenyl)piperidin-1-yl)-3-methyl-3H-[1,2,3]triazolo[4,5-d]pyrimidin-7(6H)-one]", "IC50": 37.6},
      {"smiles": "Cn1nnc(C2CCN(c3cc4c(nnn4C)c(=O)[nH]3)CC2)n1", "note": "[compound 66, 1-Methyl-6-(4-(2-methyl-2H-tetrazol-5-yl)piperidin-1-yl)-1H-[1,2,3]triazolo[4,5-c]pyridin-4(5H)-one]", "IC50": 331},
      {"smiles": "Cn1nnc2c(=O)[nH]c(N3CCN(c4c(F)cc(OCC(=O)N5CCCC5)cc4F)CC3)cc21", "note": "[compound 70, 6-(4-(2,6-Difluoro-4-(2-oxo-2-(pyrrolidin-1-yl)ethoxy)phenyl)piperazin-1-yl)-1-methyl-1H-[1,2,3]triazolo[4,5-c]pyridin-4(5H)-one]", "IC50": 15.6},
      {"smiles": "Cn1nnc2c(=O)[nH]c(N3CCN(c4c(F)cc(OCc5ccccc5)cc4F)CC3)nc21", "note": "[compound 3, 5-(4-(4-(Benzyloxy)-2,6-difluorophenyl)piperazin-1-yl)-3-methyl-3H-[1,2,3]triazolo[4,5-d]pyrimidin-7(6H)-one]", "IC50": 207},
      {"smiles": "CC(O)c1cc(F)c(N2CCN(c3cc4c(nnn4C)c(=O)[nH]3)CC2)c(F)c1", "note": "(stereo not shown) [compound 63, 6-(4-(2,6-Difluoro-4-(1-hydroxyethyl)phenyl)piperazin-1-yl)-1-methyl-1H[1,2,3]triazolo[4,5-c]pyridin-4(5H)-one]", "IC50": 27.3},
      {"smiles": "Cn1nnc2c(=O)[nH]c(N3CCN(c4c(F)cc(OCCO)cc4F)CC3)nc21", "note": "[compound 7, 5-(4-(2,6-Difluoro-4-(2-hydroxyethoxy)phenyl)piperazin-1-yl)-3-methyl-3H-[1,2,3]triazolo[4,5-d]pyrimidin-7(6H)-one]", "IC50": 44},
      {"smiles": "Cn1nnc2c(=O)[nH]c(N3CCN(c4c(F)cc(OCCN)cc4F)CC3)nc21", "note": "[compound 37, 5-(4-(4-(2-Aminoethoxy)-2,6-difluorophenyl)piperazin-1-yl)-3-methyl-3H-[1,2,3]triazolo[4,5-d]pyrimidin-7(6H)-one]", "IC50": 28.1}
    ]}
  ]
}
